From patent US20100204130A1, “USE OF HUMAN NEUROPEPTIDE AS A THERAPEUTIC AGENT” (priority 2007, published 2010)
Where a SMILES comes first, the peptide text is derived from it.

Columns and labels:
HIV-1IIIB = assay: HIV-1 antiviral assay (CPE reduction, MTS); assay type: cell-based; conditions: peptide 10 micrograms per ml, 6 days post-infection
[1] = test system: hepatitis B virus (HBV) ayw strain; assay: HBV replication assay in HepG2-2.2.15 cells (TaqMan PCR of secreted HBV DNA); assay type: cell-based; conditions: test peptide 10 micrograms per ml, six days, HBV DNA by TaqMan PCR
[2] = Cytotoxicity in HBV assay (dye uptake cell viability); assay type: cell-based; conditions: human, HepG2-2.2.15 cells, test peptide 10 micrograms per ml
HCMV strain AD169 = assay: HCMV plaque reduction assay in MRC-5 cells; assay type: cell-based; conditions: HCMV AD169 in MRC-5 cells; peptide 10 micrograms per ml; 7-10 days
Source text: Ganciclovir was used as positive control.

MRSA = assay: Methicillin Resistant Staphylococcus Aureus (MRSA) assay; assay type: cell-based; conditions: MRSA growth; peptide 10 micrograms per ml; read visually
Pseudomonas aeruginosa = Pseudomonas aeruginosa assay; assay type: cell-based; conditions: Pseudomonas aeruginosa growth; peptide 10 micrograms per ml; read visually
Streptococcus pneumoniae = Streptococcus pneumoniae assay; assay type: cell-based; conditions: Streptococcus pneumoniae growth; peptide 10 micrograms per ml; read visually
A549 cells = assay: Propidium iodide cell cycle assay; assay type: cell-based, human; conditions: test peptide 10 micrograms per ml, 24 hours, FACS
Source text: Human A549 cells (carcinomic human alveolar basal epithelial cells) were utilized in the experiments employing the Propidium iodide cell cycle assay. The eukaryotic cell cycle is a series of events that take place in a cell leading to its replication. The regulation of the cell cycle involves steps crucial to the cell, including detecting and repairing genetic damage, and provision of various checks to prevent uncontrolled cell division. The molecular events that control the cell cycle are ordered and directional; that is, each process occurs in a sequential fashion. The cell cycle consists of four distinct phases: G1 phase, S phase, G2 phase (collectively known as interphase) and M phase. M phase is itself composed of two tightly coupled processes: mitosis, in which the cell's chromosomes are divided between the two daughter cells, and cytokinesis, in which the cell's cytoplasm divides forming distinct cells. Activation of each phase is dependent on the proper progression and completion of the previous one. Cells that have temporarily or reversibly stopped dividing are said to have entered a state of quiescence called Go phase. The relatively brief M phase consists of nuclear division and cytoplasmic division. The first phase within interphase, from the end of the previous M phase till the beginning of DNA synthesis is called G1 (G indicating gap or growth). During this phase the biosynthetic activities of the cell resume at a high rate. This phase is marked by synthesis of various enzymes that are required in S phase, mainly those needed for DNA replication. The ensuing S phase starts when DNA synthesis commences; when it is complete, all of the chromosomes have been replicated. The cell then enters the G2 phase, which lasts until the cell enters mitosis. Significant protein synthesis occurs during this phase, mainly involving the production of microtubules, which are required during the process of mitosis. […]
Propidium iodide is an intercalating agent and a fluorescent molecule that can be used to stain DNA. […] After incubation for 40 min at 37° C., cells were analyzed in the FACS.

[3] = test system: Human Peripheral Blood Mononuclear Cells (PBMC); assay: T cell proliferation assay (PHA, 3H-thymidine); assay type: cell-based; conditions: test peptide 10 micrograms per ml
Method: (§1) Human Peripheral Blood Mononuclear Cells (PBMC) were obtained from normal human donors. The T cell proliferation was induced by stimulation of the cells with the T cell mitogen phytohemagglutinin (PHA), either in the absence (positive proliferation control), or in the presence of test peptide—10 micrograms per ml—to examine their effects on the T cell proliferating response. 10^5/well PBMC were plated in 96-well microtiter plates and assayed in duplicate with the peptide. Cell cultures were incubated at 37° C. for 3 days in a 5% CO2 incubator and were thereafter pulsed with 1 microCi/well ^3H-thymidine for additional 12 hours of culture. At the end of incubation time, the plates were harvested and the cells counted by liquid scintillation for the incorporation of ^3H-thymidine as a measure of T cell proliferation.

[4] = test system: Human Peripheral Blood Mononuclear Cells (PBMC); assay: B cell proliferation assay (SAC plus Interleukin-2, 3H-thymidine); assay type: cell-based; conditions: test peptide 10 micrograms per ml
Method: as §1, with “The B” for “The T”, “the B” for “the T”, “mitogen Staphylococcus aureus Cowans I (SAC) plus Interleukin-2,” for “mitogen phytohemagglutinin (PHA),”, “cell” for “cell proliferating”, “of B” for “of T”

RAW 264.7 cells = assay: Phagocytosis assay (Fluorescein-labeled Escherichia coli); assay type: cell-based, mouse; conditions: test peptide 10 micrograms per ml, flow cytometry
[5] = test system: Tumor Necrosis Factor-α (TNF-α); assay: Th1/Th2 cytokine profiling assay: TNF-α; assay type: cell-based, Balb/c mice; conditions: Ovalbumin-restimulated spleen cells; test peptide 10 micrograms per ml; 72 hours
Source text: (§2) The Balb/c mice (originated in 1923, it is a popular strain and is used in many different research disciplines. Also classified as an inbred from the production of 20 or more successive brother-sister matings, the Balb/c mouse is albino and small in size) were immunized on Days 1, 15, and 29 with Ovalbumin (Ovalbumin is the main protein found in egg white, commonly used to stimulate an immunological reaction in test animals) in PBS (5 micrograms/injection). On day 50, spleens of the mice were harvested (3 weeks after last boost with Ovalbumin). Cells were cultured (2×10^5/well in triplicate) and incubated with culture medium or test peptide—10 micrograms per ml—for 30 min. Thereafter, additional Ovalbumin was added to the cells at 10 micrograms/ml for in vitro restimulation of the cells. 72 hours later, cell supernatants were harvested and assayed using the Becton Dickinson Mouse Th1/Th2 Cytokine CBA Kit. This kit can be used to measure Interleukin-2 (IL-2), Interleukin-4 (IL-4), Interleukin-5 (IL-5), Interferon-γ (IFN-γ), and Tumor Necrosis Factor-α (TNF-α) protein levels in a single sample. The kit performance has been optimized for analysis of physiologically relevant concentrations ([…] levels) of specific cytokine proteins in tissue culture supernatants and serum samples.

Interferon-γ (IFN-γ) = assay: Th1/Th2 cytokine profiling assay: IFN-γ; assay type: cell-based, Balb/c mice; conditions: Ovalbumin-restimulated spleen cells; test peptide 10 micrograms per ml; 72 hours
Source text: as §2

Interleukin-2 (IL-2) = assay: Th1/Th2 cytokine profiling assay: IL-2; assay type: cell-based, Balb/c mice; conditions: Ovalbumin-restimulated spleen cells; test peptide 10 micrograms per ml; 72 hours
Source text: as §2

Interleukin-4 (IL-4) = assay: Th1/Th2 cytokine profiling assay: IL-4; assay type: cell-based, Balb/c mice; conditions: Ovalbumin-restimulated spleen cells; test peptide 10 micrograms per ml; 72 hours
Source text: as §2

Interleukin-5 (IL-5) = assay: Th1/Th2 cytokine profiling assay: IL-5; assay type: cell-based, Balb/c mice; conditions: Ovalbumin-restimulated spleen cells; test peptide 10 micrograms per ml; 72 hours
Source text: as §2

TNF alpha = TNF alpha production assay (LPS-stimulated macrophages, ELISA); assay type: cell-based; conditions: human macrophages, test peptide 10 micrograms per ml, lipopolysaccharide 200 ng/ml, overnight
Method: Human Peripheral Blood Mononuclear Cells (PBMC) were obtained from normal human donors. The macrophages were prepared by adherence of PBMC to the plastic wells of the plates. After 8 days in culture in the presence of recombinant human macrophage-colony stimulating factor at 2 ng/ml, differentiated macrophages were preincubated with test peptide—10 micrograms per ml—for 30 min, followed by in-well stimulation by the addition of lipopolysaccharide at a final concentration of 200 ng/ml. Not stimulated macrophages served as negative background control.
After overnight incubation, supernatants from the control and LPS-stimulated cultures were harvested and assayed for TNF alpha production employing a TNF alpha specific ELISA.

[6] = test system: Primary Human endothelial cells (HUVEC); assay: Endothelial cell migration assay; assay type: cell-based; conditions: test peptide 10 micrograms per ml, 22 hours
Method: Endothelial cell migration is a prerequisite for the process of neo-vascularization or angiogenesis which is crucial for on-site recruitment of blood vessel formation. Primary Human endothelial cells (HUVEC) were seeded in insert chambers with 3 micrometer pore size of multi-transwell plate for 6 hours at 37° C. in Endothelial Cell Basal Medium (EBM) supplemented with 0.1% bovine serum albumin. Thereafter, designated concentration of test peptide—10 micrograms per ml—was added in duplicate wells. The endothelia were allowed to migrate for 22 hours at 37° C., then, migrated cells were fixed and stained with Hoechst 33342 dye. Images of 3 fields per insert were taken and the number of migrated cells per field were quantified using the ImageProPlus software. Data were analyzed for the average number of the migrated cells and standard deviation of six data points for each treatment condition. Active test peptide against HUVEC migration was determined based on 50% inhibition of migrated cells as compared with the control. Statistic p values were computed using the Student's t-test.

HUVEC = assay: Endothelial tube formation assay; assay type: cell-based, human; conditions: test peptide 10 micrograms per ml, 20 hours
Method: The endothelial tube formation assay is based on the ability of endothelial cells to form three-dimensional capillary-like tubular structures when cultured on a gel of basement membrane extract. The endothelial tube formation assay represents a powerful model for studying inhibition and induction of angiogenesis. Pre-labeled HUVEC with Calcein AM were seeded in a 96-well culture plate coated with extracellular metrix (Chemicon international Cat. ECM625) and treated with test peptide—10 micrograms per ml—in full growth medium. […] control was vehicle only. The endothelial cells were allowed to form tubes for 20 hours and were then examined under an inverted fluorescent microscope. Duplicate wells for each treatment were photographed and quantitatively analyzed for an average tubule length using image analysis software ImageProPlus. Raw data were expressed as average tubule lengths in pixels ±standard deviation. Statistic p values were computed using the Student's t-test.

[7] = Cytotoxicity in HIV-1 assay (MTS cell viability); conditions: human, CEM-SS cells
[8] = Cytotoxicity in HCMV assay (CellTiter 96 cell viability); conditions: human, MRC-5 cells (embryonal lung fibroblasts)

Cc1cn([C@H]2C[C@H](N=[N+]=[N-])[C@@H](CO)O2)c(=O)[nH]c1=O [AZT]
% CPE reduction in HIV-1 infected CEM-SS cells (HIV-1IIIB): 99%

CC(C)(C)NC(=O)[C@@H]1CN(Cc2cccnc2)CCN1C[C@@H](O)C[C@@H](Cc1ccccc1)C(=O)N[C@H]1c2ccccc2C[C@H]1O [Indinavir]
% CPE reduction in HIV-1 infected CEM-SS cells (HIV-1IIIB): 100%

CC(C)C[C@H](NC(=O)CNC(=O)[C@H](CCC(=O)O)NC(=O)CNC(=O)[C@H](C)N)C(=O)N[C@@H](CC(N)=O)C(=O)N[C@@H](CO)C(=O)N[C@@H](CCC(N)=O)C(=O)N[C@@H](Cc1ccccc1)C(=O)N[C@@H](Cc1c[nH]c2ccccc12)C(=O)N[C@@H](CO)C(=O)N[C@@H](CC(C)C)C(=O)N[C@@H](C)C(=O)N[C@@H](C)C(=O)N1CCC[C@H]1C(=O)N[C@@H](CCC(N)=O)C(=O)N[C@@H](CCCNC(=N)N)C(=O)N[C@@H](Cc1ccccc1)C(N)=O [Neuropeptide AF, Ala-Gly-Glu-Gly-Leu-Asn-Ser-Gln-Phe-Trp-Ser-Leu-Ala-Ala-Pro-Gln-Arg-Phe-NH2] (H-AGEGLNSQFWSLAAPQRF-NH2)
% CPE reduction in HIV-1 infected CEM-SS cells (HIV-1IIIB): 0.0% | % inhibition of HBV replication in HEP G2 cells [1]: 42.6% | viability at 144 h, 10 micrograms per ml [2]: 100% | % plaque reduction (HCMV strain AD169): 6.9% | % inhibition (MRSA): 0.0% | % inhibition (Pseudomonas aeruginosa): 0.0% | % inhibition (Streptococcus pneumoniae): 0.0% | Cell cycle analysis G0/G1 (A549 cells): 55.5 | Cell cycle analysis G2/M (A549 cells): 10.0 | Cell cycle analysis S (A549 cells): 34.5 | % of PHA induced control [3]: 103.8% | % of SAC/IL2 induced control [4]: 105.7% | % of control phagocytosis (RAW 264.7 cells): 105.9% | TNF-a spleen cells; TH1 response (% of control) [5]: 92.1 % of control | IFNγ spleen cells; TH1 response (% of control) (Interferon-γ (IFN-γ)): 84.8 % of control | IL-2 spleen cells (% of control) (Interleukin-2 (IL-2)): 0.0 % of control | IL-4 spleen cells; TH2 response (% of control) (Interleukin-4 (IL-4)): 0.0 % of control | IL-5 spleen cells; TH2 response (% of control) (Interleukin-5 (IL-5)): 52.2 % of control | % of LPS induction (TNF alpha): 104.7% | % inhibition of migration [6]: −4% | % inhibition of tube formation (HUVEC): −9% | viability at 10 micrograms per ml [7]: 81.6% | viability at 144 h [8]: 100%
